System: eNOS promoter
Assay: Activation of eNOS transcription (eNOS promoter-luciferase reporter in human endothelial cell line)
Format: cell-based
Settings: human endothelial cell line stably transfected with eNOS promoter-luciferase construct, 18 h incubation, EC50 determined graphically; read-out: EC50 values of transcription induction ratios (TIR)
Experimental: A) Activation of eNOS Transcription
Activation of eNOS transcription was measured as described in detail by Li et al., “Activation of protein kinase C alpha and/or epsilon enhances transcription of the human endothelial nitric oxide synthase gene”, Mol. Pharmacol. 53 (1998), 630-637. Briefly, a 3.5 kB long fragment 5′ of the starting codon of the eNOS gene was cloned, sequenced and cloned in firefly luciferase expression plasmids to monitor activation of the eNOS promoter by reporter gene activity. A human endothelial cell line stable transfected and expressing this promoter-reporter construct was used for compound testing. Cells were incubated for 18 h with the compounds.
All compounds were dissolved in sterile dimethyl sulfoxide (DMSO). A final concentration of 0.5% DMSO in complete medium was allowed. Induction of reporter gene expression in these cells was measured using a standard luciferase assay system (Promega, Cat. No. E150) according to the manufacturer's instructions. Luciferase induction in cells incubated with compounds were compared to those incubated with solvent alone. The ratio of both activities (transcription induction ratio, TIR) was plotted as a function of compound concentration. Typically, TIR values started at low concentrations at a ratio of 1, indicating no compound effect, and extended up to a maximum TIR value TIR(max) which indicates the increase of the eNOS transcription. EC50 values of transcription induction ratios as a function of compound concentration were determined graphically.

EC50 | Structure (SMILES)
< 500 nM | CCOC(=O)c1sc2nc(-c3ccc(F)cc3)cn2c1C [Example 1, 6-(4-Fluoro-phenyl)-3-methyl-imidazo[2,1-b]thiazole-2-carboxylic acid ethyl ester]
< 500 nM | CCOC(=O)c1sc2nc(-c3cccc(Cl)c3)cn2c1C [Example 2, 6-(3-Chloro-phenyl)-3-methyl-imidazo[2,1-b]thiazole-2-carboxylic acid ethyl ester]
< 500 nM | CCOC(=O)c1sc2nc(-c3ccc(C)cc3)cn2c1C [Example 3, 3-Methyl-6-p-tolyl-imidazo[2,1-b]thiazole-2-carboxylic acid ethyl ester]
< 500 nM | Cc1c(C(=O)NC(C)(C)C)sc2nc(-c3ccc(F)cc3)cn12 [Example 10, 6-(4-Fluoro-phenyl)-3-methyl-imidazo[2,1-b]thiazole-2-carboxylic acid tert-butylamide]
< 500 nM | Fc1ccc(-c2cn3cc(Br)sc3n2)cc1 [Example 22, 2-Bromo-6-(4-fluoro-phenyl)-imidazo[2,1-b]thiazole]
